According to US20110182850A1, “ORGANIC COMPOUNDS AND THEIR USES” (priority 2009, published 2011):

Target: T1, HCV NS3-4A serine protease (full-length NS3-4A protein, genotype 1a, strain HCV-1) (Hepatitis C virus genotype 1a, UniProt P26664)
T1 construct: using the full-length NS3-4A protein (genotype 1a, strain HCV-1)
Assay: HCV NS3-4A protease assay
Assay type: biochemical
Conditions: Protease IC50
Experimental: The inhibitory activity of certain compounds of Table A against HCV NS3-4A serine protease is determined in a homogenous assay using the full-length NS3-4A protein (genotype 1a, strain HCV-1) and a commercially available internally-quenched fluorogenic peptide substrate as described by Taliani, M., et al. 1996 Anal. Biochem. 240:60-67, which is incorporated by reference in its entirety.

T1 sequence (P26664 1658-1711): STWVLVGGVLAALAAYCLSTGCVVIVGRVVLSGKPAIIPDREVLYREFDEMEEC
T1 sequence (P26664 1027-1657): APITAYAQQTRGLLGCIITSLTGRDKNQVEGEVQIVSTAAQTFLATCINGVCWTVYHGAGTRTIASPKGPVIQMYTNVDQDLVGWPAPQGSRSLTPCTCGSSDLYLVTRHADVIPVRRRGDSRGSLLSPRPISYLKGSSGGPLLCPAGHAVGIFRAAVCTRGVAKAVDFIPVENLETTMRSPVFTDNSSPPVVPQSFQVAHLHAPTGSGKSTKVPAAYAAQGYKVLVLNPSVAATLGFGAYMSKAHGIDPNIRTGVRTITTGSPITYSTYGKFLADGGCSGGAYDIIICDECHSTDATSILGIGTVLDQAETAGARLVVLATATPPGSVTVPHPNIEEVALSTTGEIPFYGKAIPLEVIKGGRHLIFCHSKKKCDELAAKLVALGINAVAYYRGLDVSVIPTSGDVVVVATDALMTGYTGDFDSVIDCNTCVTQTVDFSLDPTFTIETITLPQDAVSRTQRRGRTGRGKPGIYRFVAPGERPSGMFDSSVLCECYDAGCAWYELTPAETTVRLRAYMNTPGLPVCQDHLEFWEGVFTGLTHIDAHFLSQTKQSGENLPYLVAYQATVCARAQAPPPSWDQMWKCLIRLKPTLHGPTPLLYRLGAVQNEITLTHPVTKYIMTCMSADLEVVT

First: C=CCC(C)(NC(=O)[C@@H]1C[C@@]2(CN1C(=O)[C@@H](NC(=O)[C@@H](NC(=O)[C@@H]1CCCCN1C(C)C)C(C)(C)C)C(C)(C)C)C(C)(C)C21CCC1)C(=O)NS(=O)(=O)C1CC1 (stereo partly drawn) [Compound 85, (5R,8S)-N-{1-[(cyclopropylsulfonyl)carba-moyl]-1-methylbut-3-en-1-yl}-7-[(2S)-2-{[(2S)-2-({[(2S)-1-isopropylpiperidin-2-yl]carbonyl}amino)-3,3-dimethylbutanoyl]amino}-3,3-dimethylbutanoyl]-10,10-dimethyl-7-azadispiro[3.0.4.1]decane-8-carboxamide]
Second: CC[C@@H]1C[C@]1(NC(=O)[C@@H]1C[C@@]2(CN1C(=O)[C@@H](NC(=O)[C@@H](NC(=O)[C@@H]1CCCCN1C(C)C)C(C)(C)C)C(C)(C)C)C(C)(C)C21CCC1)C(=O)NS(=O)(=O)C1CC1 [Compound 91, (5R,8S)-N-{(1R,2R)-1-[(cyclopropylsulfonyl)carba-moyl]-2-ethylcyclopropyl}-7-[(2S)-2-{[(2S)-2-({[(2S)-1-isopropylpiperidin-2-yl]carbonyl}amino)-3,3-dimethylbutanoyl]amino}-3,3-dimethylbutanoyl]-10,10-dimethyl-7-azadispiro[3.0.4.1]decane-8-carboxamide]
The IC50 of the first is 2200-fold higher: 7630 nM for the first, 3.5 nM for the second. The second is the more potent here.

First: C=CCC(C)(NC(=O)[C@@H]1C[C@@]2(CN1C(=O)[C@@H](NC(=O)[C@@H](NC(=O)[C@@H]1CCCCN1C(C)C)C(C)(C)C)C(C)(C)C)C(C)(C)C21CCC1)C(=O)NS(=O)(=O)C1CC1 (stereo partly drawn) [Compound 86, (5R,8S)-N-{1-[(cyclopropylsulfonyl)carba-moyl]-1-methylbut-3-en-1-yl}-7-[(2S)-2-{[(2S)-2-({[(2S)-1-isopropylpiperidin-2-yl]carbonyl}amino)-3,3-dimethylbutanoyl]amino}-3,3-dimethylbutanoyl]-10,10-dimethyl-7-azadispiro[3.0.4.1]decane-8-carboxamide]
Second: C=C[C@@H]1C[C@]1(NC(=O)[C@@H]1C[C@@]2(CN1C(=O)[C@@H](NC(=O)[C@@H](NC(=O)C1CCCCN1C(C)C)C(C)(C)C)C(C)(C)C)C(C)(C)C21CCC1)C(=O)NS(C)(=O)=O (stereo partly drawn) [Compound 94, (5R,8S)-7-[(2S)-2-{[(2S)-2-{[(1-isopropylpiperidin-2-yl)carbonyl]amino}-3,3-dimethylbutanoyl]amino}-3,3-dimethylbutanoyl]-10,10-dimethyl-N-{(1R,2S)-1-[(methylsulfonyl)carbamoyl]-2-vinylcyclopropyl}-7-azadispiro[3.0.4.1]decane-8-carboxamide]
The IC50 of the first is 400-fold higher: 4050 nM for the first, 10 nM for the second.

Going from C=C[C@@H]1C[C@]1(NC(=O)[C@@H]1C[C@@]2(CN1C(=O)C(NC(=O)[C@@H](NC(=O)c1cnccn1)C1CCCCC1)C(C)(C)C)C(C)(C)C21CCC1)C(=O)NS(=O)(=O)C1CC1 (stereo partly drawn) [Compound 87, (5R,8S)-7-[2-({(2S)-2-cyclohexyl-2-[(pyrazin-2-ylcarbonyl)amino]acetyl}amino)-3,3-dimethylbutanoyl]-N-{(1R,2S)-1-[(cyclopropylsulfonyl)carba-moyl]-2-vinylcyclopropyl}-10,10-dimethyl-7-azadispiro[3.0.4.1]decane-8-carboxamide] to C=C[C@@H]1C[C@]1(NC(=O)[C@@H]1C[C@@]2(CN1C(=O)[C@@H](NC(=O)[C@@H](NC(=O)c1cnccn1)C1CCCCC1)C(C)(C)C)C(C)(C)C21CCC1)C(=O)NS(=O)(=O)C1CC1 [Compound 88, (5R,8S)-7-[(2S)-2-({(2S)-2-cyclohexyl-2-[(pyrazin-2-ylcarbonyl)amino]acetyl}amino)-3,3-dimethylbutanoyl]-N-{(1R,2S)-1-[(cyclopropylsulfonyl)carba-moyl]-2-vinylcyclopropyl}-10,10-dimethyl-7-azadispiro[3.0.4.1]decane-8-carboxamide], the IC50 falls from 2.5 nM to 0.8 nM (3.1-fold). The second is the more potent here.

Going from C=C[C@@H]1C[C@]1(NC(=O)[C@@H]1C[C@@]2(CN1C(=O)[C@@H](NC(=O)[C@@H](NC(=O)C(C)(C)N1CCCC1)C1CCCCC1)C(C)(C)C)C(C)(C)C21CCC1)C(=O)NS(=O)(=O)C1CC1 [Compound 89, (5R,8S)-7-[(2S)-2-({(2S)-2-cyclohexyl-2-[(2-methyl-2-pyrrolidin-1-ylpropanoyl)amino]acetyl}amino)-3,3-dimethylbutanoyl]-N-{(1R,2S)-1-[(cyclopropylsulfonyl)carba-moyl]-2-vinylcyclopropyl}-10,10-dimethyl-7-azadispiro[3.0.4.1]decane-8-carboxamide] to C=C[C@@H]1C[C@]1(NC(=O)[C@@H]1C[C@@]2(CN1C(=O)[C@@H](NC(=O)[C@@H](NC(C)=O)C1CCCCC1)C(C)(C)C)C(C)(C)C21CCC1)C(=O)NS(=O)(=O)C1CC1 [Compound 99, (5R,8S)-7-[(2S)-2-{[(2S)-2-acetamido-2-cyclohexylacetyl]amino}-3,3-dimethylbutanoyl]-N-{(1R,2S)-1-[(cyclopropylsulfonyl)carba-moyl]-2-vinylcyclopropyl}-10,10-dimethyl-7-azadispiro[3.0.4.1]decane-8-carboxamide], the IC50 rises from 0.8 nM to 6 nM (7.5-fold).

Compared with C=C[C@@H]1C[C@]1(NC(=O)[C@@H]1C[C@@]2(CN1C(=O)[C@@H](NC(=O)[C@@H](NC(=O)[C@@H]1CCCN(CC)C1)C1CCCCC1)C(C)(C)C)C(C)(C)C21CCC1)C(=O)NS(=O)(=O)C1CC1 [Compound 90, (5R,8S)-7-[(2S)-2-{[(2S)-2-cyclohexyl-2-({[(3R)-1-ethylpiperidin-3-yl]carbonyl}amino)acetyl]amino}-3,3-dimethylbutanoyl]-N-{(1R,2S)-1-[(cyclopropylsulfonyl)carba-moyl]-2-vinylcyclopropyl}-10,10-dimethyl-7-azadispiro[3.0.4.1]decane-8-carboxamide], C=C[C@@H]1C[C@]1(NC(=O)[C@@H]1C[C@@]2(CN1C(=O)[C@@H](NC(=O)[C@@H](NC(=O)[C@@H]1CCCCN1C(C)C)C1CCCCC1)C(C)(C)C)C(C)(C)C21CCC1)C(=O)NS(=O)(=O)C1CC1 [Compound 92, (5R,8S)-7-[(2S)-2-{[(2S)-2-cyclohexyl-2-({[(2S)-1-isopropylpiperidin-2-yl]carbonyl}amino)acetyl]amino}-3,3-dimethylbutanoyl]-N-{(1R,2S)-1-[(cyclopropylsulfonyl)carba-moyl]-2-vinylcyclopropyl}-10,10-dimethyl-7-azadispiro[3.0.4.1]decane-8-carboxamide] is 1.7-fold lower in IC50: 0.7 nM for the first, 0.4 nM for the second.

Compared with C=C[C@@H]1C[C@]1(NC(=O)[C@@H]1C[C@@]2(CN1C(=O)[C@@H](NC(=O)[C@@H](NC(=O)C1CCCCN1C(C)C)C(C)(C)C)C(C)(C)C)C(C)(C)C21CCC1)C(=O)NS(=O)(=O)C(C)(C)C (stereo partly drawn) [Compound 93, (5R,8S)-N-{(1R,2S)-1-[(tert-butylsulfonyl)carbamoyl]-2-vinylcyclopropyl}-7-[(2S)-2-{[(2S)-2-{[(1-isopropylpiperidin-2-yl)carbonyl]amino}-3,3-dimethylbutanoyl]amino}-3,3-dimethylbutanoyl]-10,10-dimethyl-7-azadispiro[3.0.4.1]decane-8-carboxamide], C=C[C@@H]1C[C@]1(NC(=O)[C@@H]1C[C@@]2(CN1C(=O)[C@@H](NC(=O)[C@@H](NC(=O)c1cnccn1)C(C)(C)C)C(C)(C)C)C(C)(C)C21CCC1)C(=O)NS(=O)(=O)C1CC1 [Compound 100, (5R,8S)-N-{(1R,2S)-1-[(cyclopropylsulfonyl)carba-moyl]-2-vinylcyclopropyl}-7-[(2S)-2-({(2S)-3,3-dimethyl-2-[(pyrazin-2-ylcarbonyl)amino]butanoyl}amino)-3,3-dimethylbutanoyl]-10,10-dimethyl-7-azadispiro[3.0.4.1]decane-8-carboxamide] is 2-fold lower in IC50: 8 nM for the first, 4 nM for the second.

C=C[C@@H]1C[C@]1(NC(=O)[C@@H]1C[C@@]2(CN1C(=O)[C@@H](NC(=O)[C@@H](NC(=O)c1cccnc1)C1CCCCC1)C(C)(C)C)C(C)(C)C21CCC1)C(=O)NS(=O)(=O)C1CC1 [Compound 95, (5R,8S)-7-[(2S)-2-({(2S)-2-cyclohexyl-2-[(pyridin-3-ylcarbonyl)amino]acetyl}amino)-3,3-dimethylbutanoyl]-N-{(1R,2S)-1-[(cyclopropylsulfonyl)carba-moyl]-2-vinylcyclopropyl}-10,10-dimethyl-7-azadispiro[3.0.4.1]decane-8-carboxamide] and C=C[C@@H]1C[C@]1(NC(=O)[C@@H]1C[C@@]2(CN1C(=O)[C@@H](NC(=O)[C@@H](NC(=O)c1ccncc1)C1CCCCC1)C(C)(C)C)C(C)(C)C21CCC1)C(=O)NS(=O)(=O)C1CC1 [Compound 96, (5R,8S)-7-[(2S)-2-{[(2S)-2-cyclohexyl-2-(isonicotinoylamino)acetyl]amino}-3,3-dimethylbutanoyl]-N-{(1R,2S)-1-[(cyclopropylsulfonyl)carba-moyl]-2-vinylcyclopropyl}-10,10-dimethyl-7-azadispiro[3.0.4.1]decane-8-carboxamide] are within 1.5-fold of each other in IC50: 0.9 nM for the first, 1 nM for the second.

First: C=C[C@@H]1C[C@]1(NC(=O)[C@@H]1C[C@@]2(CN1C(=O)[C@@H](NC(=O)[C@@H](NC(=O)c1ccccn1)C1CCCCC1)C(C)(C)C)C(C)(C)C21CCC1)C(=O)NS(=O)(=O)C1CC1 [Compound 97, (5R,8S)-7-[(2S)-2-({(2S)-2-cyclohexyl-2-[(pyridin-2-ylcarbonyl)amino]acetyl}amino)-3,3-dimethylbutanoyl]-N-{(1R,2S)-1-[(cyclopropylsulfonyl)carba-moyl]-2-vinylcyclopropyl}-10,10-dimethyl-7-azadispiro[3.0.4.1]decane-8-carboxamide]
Second: C=C[C@@H]1C[C@]1(NC(=O)[C@@H]1C[C@@]2(CN1C(=O)[C@@H](NC(=O)[C@@H](NC(=O)c1ccccc1)C1CCCCC1)C(C)(C)C)C(C)(C)C21CCC1)C(=O)NS(=O)(=O)C1CC1 [Compound 98, (5R,8S)-7-[(2S)-2-{[(2S)-2-(benzoylamino)-2-cyclohexylacetyl]amino}-3,3-dimethylbutanoyl]-N-{(1R,2S)-1-[(cyclopropylsulfonyl)carba-moyl]-2-vinylcyclopropyl}-10,10-dimethyl-7-azadispiro[3.0.4.1]decane-8-carboxamide]
The IC50 of the first is 1.5-fold lower: 1 nM for the first, 1.5 nM for the second. The first is the more potent here.
